Experimental data taken from patent US10233205B2, “Magnetic resonance imaging contrast agent capable of detecting hydrogen peroxide and reducing reactive oxygen species” (Auburn University, priority 2015, dated 2019).

Columns and labels:
[1] = Potentiometric pH titrations, Hyperquad model; details: for log(β): Hyperquad model, 100 mM KCl, 25° C.
From the text: (§2) The speciation in water was more rigorously probed with potentiometric pH titrations. […] The quinolic protons likely deprotonate at higher pH values (pKa˜10), but we were unable to obtain the high pH data necessary to confirm this.
(§3) The data were fit to a model containing the protonated forms of the free ligand and four Mn(II) complexes with the ligand in various protonation states: [Mn(H2qtp2)], [Mn(H3qtp2)]^+, [Mn(H4qtp2)]^2+, and [Mn(H4qtp2)]^3+ (Scheme 4).

[2] = conditions identical to those used for 3; cited from earlier work
[3] = T1-weighted relaxivity (r1) on 3 T clinical MRI scanner; assay type: physicochemical; details: no oxidant; 50 mM HEPES pH 7.00, 3 T, 25° C.
From the text: All MRI data were collected at the Auburn University MRI Research Center (Auburn, Ala.) on a Siemens Verio open-bore 3-T MRI clinical scanner. A 15-channel knee coil was used to simultaneously image 12-26 samples. An inversion recovery (IR) sequence was used that featured a non-selective adiabatic inversion pulse followed by a slice-selective gradient recalled echo (GRE) readout after a delay period corresponding to the inversion time (TI).^1-2 The GRE was a saturation readout, such that only one line of k-space was acquired per repetition time (TR). This method was selected to maximize both the signal strength and the accuracy of the T1 estimates. Specific imaging parameters were as follows: TR was set to 4 s, TI was varied from 4.8 to 2500 ms over 37 steps, the echo time (TE) was set to 3.6 ms, the flip angle equaled 90°, averages=1, slice thickness=5 mm, field of view=140×140 mm, matrix=128×128, resulting in a pixel size of 1.1×1.1×5.0 mm. All samples were run in 50 mM solutions of HEPES in water, buffered to pH 7.0 and kept at […]. The manganese content was systematically varied from 0.10 to 1.00 mM. The inverses of the T1 values were plotted versus the concentration of Mn(II) to obtain r1 values. All reported r1 values are averages from the results of two separate series of experiments. Each series of experiments used a different batch of 1.
Image analysis was performed using custom Matlab programs (Mathworks, Natick, Mass.). The initial TI=4.8 ms image served as a baseline to determine circular region of interest (ROI) boundaries for each sample; from these, the mean pixel magnitudes for each ROI were calculated. For each of the 36 subsequent TI images, the same ROI boundaries were applied and the mean pixel magnitude calculations were repeated. This gave consistent ROI spatial definitions and a corresponding time course of magnitudes for each of the samples over all the TI time points. Each sample's complex phase was used to correct the magnitude polarity to produce a complete exponential T1 inversion recovery curve. The Nelder-Mead simplex algorithm^3 was applied to each sample's exponential curve to estimate its corresponding T1 value.
(§1) For the relaxivity measurements, all samples were run in 298 K aqueous solutions containing 50 mM HEPES buffered to pH 7.00, using a 3 T field provided by a clinical MRI scanner. The data were fit to the indicated linear equations; the y-intercepts were within error of 1/T1 measurements associated with two control samples that contained no Mn(II): (A) 10 mM H2O2 in 50 mM HEPES buffer and (B) pure 50 mM HEPES buffer (both 0.46 s^−1).
as §1, with “All” for “For the relaxivity measurements, all”, “s^−1). The oxidation of 1 by 2,3-dichloro-5,6-dicyano-1,4-benzoquinone (DDQ) occurred in CH2Cl2. After the reaction occurred, the 2,3-dichloro-5,6-dicyanoquinol product was removed via filtration, the CH2Cl2 was removed, and the sample was dissolve in HEPES buffer for MRI analysis. The other oxidation reactions occurred entirely in HEPES buffer.” for “s^−1).”
The capability of 3 to serve as a MRI contrast agent was assessed with a 3 T clinical MRI scanner. All samples were run in 298 K aqueous solutions containing 50 mM HEPES buffered to pH 7.00, using a 3 T field provided by a clinical MRI scanner. All samples were prepared under air. The oxidized samples were prepared by directly adding H2O2 to solutions of 3 in aqueous solutions buffered to pH 7.0. The oxidation reactions were allowed to proceed for 30 min at 298 K before the T1 measurements were taken. […]

[4] = Stability in aerobic solution / to pH; assay type: physicochemical; details: pH >10
Description: Over this time, collected UV/vis spectra (FIGS. 2 & 3) display changes in the region between 200 nm and 300 nm which are consistent with the oxidation of the quinol to a para-quinone. Past 24 h, the solution begins to turn brown, consistent with oxidation of the manganese to Mn(III) and/or Mn(IV). For the spectrophotometric analysis, the Fe(ClO4)2 solution was added to a MeCN solution containing 0.10 mM [Mn(Hptp1)(MeCN)]^2+; the mixture was scanned at 0 min (dashed red), 30 min (dashed pink), and 60 min (dashed blue). […] At 15 h, approximately 11% of the Mn(II) has been displaced by Fe(II) as indicated by data in FIG. 3.
The stability of 3 to air and adventitious metal ions was assessed primarily by UV/vis spectroscopy. […] Complex 3, however, is susceptible to metal exchange. When equimolar amounts of 3 and Fe(ClO4)2 are mixed in MeCN, 80% of the Mn(II) is replaced by Fe(II) by 3 h.

[5] = Competitive binding assay with TPEN for log(K) of ligand binding to Mn(II); assay type: physicochemical
Description: The log(K) was measured via a competitive binding assay between N,N,N′,N′-tetrakis(2-pyridylmethyl)ethylenediamine (TPEN) and the ligand (L). Various amounts of TPEN were added to a solutions of the ligand in MeCN-d3 and D2O.
The log(K) for the complexation of H2qtp1 to Mn(II) was estimated through a titration with the metal-scavenging agent TPEN (N,N,N′,N′-tetrakis(2-pyridinylmethyl)ethylenediamine, log K=10.3). The ratios of free TPEN to free ligand were assessed by ^1H NMR.
Given the known log(K) of 10.3 for TPEN's binding to Mn(II), a log(K) of 10.7 was thereby assigned for the coordination of H2qtp1 to Mn(II). […] The log(K) of 10.7 is nearly identical to the 10.6 value estimated for a related ligand from our laboratory that contains a para-methylphenol group in place of the H2qtp1's quinol.

Solubility in water = assay type: physicochemical; details: pure H2O

From the text for physchem: as §2, §3

With `Oc1ccc2c(c1)CN(Cc1ccccn1)CCN(Cc1ccccn1)Cc1cc(O)ccc1[O][Mn][O]2` [[Mn(H2qtp2)]] the “log(β)” value [1] was −7.19 (±0.01), the “percent formation of Mn(II) species” value ([1]; pH 7.0) was 40.3% and the “percent formation of Mn(II) species” value ([1]; pH 7.4) was 66.2%.
With `Oc1ccc(O)c(CN(CCN(Cc2ccccn2)Cc2cc(O)ccc2O)Cc2ccccn2)c1` [H5qtp2^+] the “log(β)” value [1] was 7.18 (±0.03).
For `O.O.O.O.O.O.[Mn+2]` [[Mn(H2O)6]^2+], the “r1, previously found” value [2] is listed as “about 5.3 mM^−1s^−1”.
With `O.O=C([O-])CN(CCN(CC(=O)[O-])CC(=O)[O-])CC(=O)[O-].[Mn+2]` [[Mn(EDTA)(H2O)]^2−, reference compound] the “r1 (T1-weighted relaxivity)” value [3] was 1.73 mM⁻¹ s⁻¹.
For `Oc1ccc(O)c(CN(CCN(Cc2ccccn2)Cc2cc(O)ccc2O)Cc2ccccn2)c1` [Complex H4qtp2, N,N′-Bis(2,5-dihydroxybenzyl)-N,N′-bis(2-pyridinylmethyl)-1,2-ethanediamine], the “log(β)” value [1] was 0.00, the pKa (physchem; pKL1 (free ligand pKa)) was 4.47 and the pKa (physchem; pKL2 (free ligand pKa)) was 7.18. For the same molecule, the “stability of ligand to pH” value [4] was “degrades under basic conditions”.
With `Oc1ccc(O)c(CN(CCN(Cc2ccccn2)Cc2cc(O)ccc2O)Cc2ccccn2)c1` [H6qtp2^2+] the “log(β)” value [1] was 11.65 (±0.05).
With `Oc1ccc(O)c(CN(CCN(Cc2ccccn2)Cc2ccccn2)Cc2ccccn2)c1` [Complex H2qtp1, N-(2,5-Dihydroxybenzyl)-N,N′,N′-tris(2-pyridinylmethyl)-1,2-ethanediamine] the “equilibrium constant for [Mn(L)(MeCN)]^2+ + TPEN → [Mn(TPEN)]^2+ + L” value ([5]; in both water and MeCN) was 0.4 and the “log(K) for the coordination of ligand to Mn(II)” value ([5]; titration with TPEN, 1H NMR, water and MeCN) was 10.7.
For “cis-Dibromo(N,N′-bis(2,5-benzoquinone)-N,N′-bis(2-pyridinylmethyl)-1,2-ethanediamine)manganese(II) [Complex 4]”, the “solubility in water” value (Solubility in water) was “poor and poor solubility”.
